Test results published in ChEMBL document CHEMBL1201862, “PubChem BioAssay data set” (2004).
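Briefly, cells in 96-well plates were exposed to five compound concentrations for 48 h, and endpoints were estimated by linear interpolation. Here, GI50 denotes the concentration required for 50% inhibition of growth.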 Active and inactive are the calls of the source. Rule as the data show it: active = GI50 up to about 1.1 µM and inactive = higher.

Columns and labels:
Experiment in all cases: NCI-60 cell line screen, 48 h
[1] = tested on: LOX IMVI
[2] = tested on: SF-539
[3] = tested on: HT-29
[4] = tested on: BT-549
[5] = tested on: NCI-H460
[6] = tested on: SK-MEL-28
[7] = tested on: SNB-75
[8] = tested on: Hs-578T
[9] = tested on: SR
[10] = tested on: Malme-3M
[11] = tested on: HCT-15
[12] = tested on: MOLT-4
[13] = tested on: OVCAR-8
[14] = tested on: MDA-MB-435
[15] = tested on: TK-10
[16] = tested on: UACC-257
[17] = tested on: A498
[18] = tested on: K562
[19] = tested on: NCI/ADR-RES
[20] = tested on: SF-268
[21] = tested on: SK-MEL-5
[22] = tested on: SN12C
[23] = tested on: DU-145
[24] = tested on: CCRF-CEM
[25] = tested on: OVCAR-5
[26] = tested on: NCI-H226
[27] = tested on: HCT-116
[28] = tested on: RPMI-8226
[29] = tested on: HOP-92
[30] = tested on: NCI-H23
[31] = tested on: IGROV-1
[32] = tested on: EKVX
[33] = tested on: SNB-19
[34] = tested on: HL-60
[35] = tested on: U-251
[36] = tested on: COLO 205
[37] = tested on: CAKI-1
[38] = tested on: SF-295
[39] = tested on: HOP-62
[40] = tested on: PC-3
[41] = tested on: NCI-H522
[42] = tested on: MCF7
[43] = tested on: 786-0
[44] = tested on: MDA-N
[45] = tested on: HCC 2998
[46] = tested on: M14
[47] = tested on: OVCAR-3
[48] = tested on: SK-MEL-2
[49] = tested on: KM12
[50] = tested on: RXF 393
[51] = tested on: MDA-MB-231
[52] = tested on: ACHN
[53] = tested on: OVCAR-4
[54] = tested on: A549
[55] = tested on: SW-620
[56] = tested on: UO-31
[57] = tested on: T47D
[58] = tested on: SK-OV-3
[59] = tested on: UACC-62

c1ccc(/N=C2\SC(c3ccccc3)CN2C23CC4CC(CC(C4)C2)C3)cc1 (stereo unspecified)
GI50 [1]: > 100 µM (inactive) | GI50 [2]: > 100 µM (inactive) | GI50 [3]: > 100 µM (inactive) | GI50 [4]: > 100 µM (inactive) | GI50 [5]: > 100 µM (inactive) | GI50 [6]: > 100 µM (inactive) | GI50 [7]: > 100 µM (inactive) | GI50 [8]: > 100 µM (inactive) | GI50 [9]: > 100 µM (inactive) | GI50 [10]: > 100 µM (inactive) | GI50 [11]: > 100 µM | GI50 [12]: > 100 µM (inactive) | GI50 [13]: > 100 µM (inactive) | GI50 [14]: > 100 µM (inactive) | GI50 [15]: > 100 µM (inactive) | GI50 [16]: > 100 µM (inactive) | GI50 [17]: > 100 µM (inactive) | GI50 [18]: > 100 µM (inactive) | GI50 [19]: > 100 µM (inactive) | GI50 [20]: > 100 µM (inactive) | GI50 [21]: > 100 µM (inactive) | GI50 [22]: > 100 µM (inactive) | GI50 [23]: > 100 µM (inactive) | GI50 [24]: > 100 µM (inactive) | GI50 [25]: > 100 µM (inactive) | GI50 [26]: > 100 µM (inactive) | GI50 [27]: > 100 µM (inactive) | GI50 [28]: > 100 µM (inactive) | GI50 [29]: > 100 µM (inactive) | GI50 [30]: > 100 µM (inactive) | GI50 [31]: > 100 µM (inactive) | GI50 [32]: > 100 µM (inactive) | GI50 [33]: > 100 µM (inactive) | GI50 [34]: > 100 µM (inactive) | GI50 [35]: > 100 µM (inactive) | GI50 [36]: > 100 µM (inactive) | GI50 [37]: > 100 µM (inactive) | GI50 [38]: > 100 µM (inactive) | GI50 [39]: > 100 µM (inactive) | GI50 [40]: > 100 µM (inactive) | GI50 [41]: > 100 µM (inactive) | GI50 [42]: > 100 µM (inactive) | GI50 [43]: > 100 µM (inactive) | GI50 [44]: > 100 µM (inactive) | GI50 [45]: > 100 µM (inactive) | GI50 [46]: > 100 µM (inactive) | GI50 [47]: > 100 µM (inactive) | GI50 [48]: > 100 µM (inactive) | GI50 [49]: > 100 µM (inactive) | GI50 [50]: > 100 µM (inactive) | GI50 [51]: > 100 µM (inactive) | GI50 [52]: > 100 µM (inactive) | GI50 [53]: > 100 µM (inactive) | GI50 [54]: > 100 µM (inactive) | GI50 [55]: > 100 µM (inactive) | GI50 [56]: > 100 µM (inactive)

c1cncc(CNCCN2CCNCC2)c1
GI50 [1]: > 100 µM (inactive) | GI50 [2]: > 100 µM (inactive) | GI50 [3]: > 100 µM (inactive) | GI50 [4]: > 100 µM (inactive) | GI50 [5]: > 100 µM (inactive) | GI50 [6]: > 100 µM (inactive) | GI50 [7]: > 100 µM (inactive) | GI50 [57]: > 100 µM (inactive) | GI50 [8]: > 100 µM (inactive) | GI50 [9]: > 100 µM (inactive) | GI50 [10]: > 100 µM (inactive) | GI50 [11]: > 100 µM | GI50 [12]: > 100 µM (inactive) | GI50 [13]: > 100 µM (inactive) | GI50 [14]: > 100 µM (inactive) | GI50 [15]: > 100 µM (inactive) | GI50 [16]: > 100 µM (inactive) | GI50 [17]: > 100 µM (inactive) | GI50 [18]: > 100 µM (inactive) | GI50 [19]: > 100 µM (inactive) | GI50 [20]: > 100 µM (inactive) | GI50 [21]: > 100 µM (inactive) | GI50 [22]: > 100 µM (inactive) | GI50 [25]: > 100 µM (inactive) | GI50 [26]: > 100 µM (inactive) | GI50 [27]: > 100 µM (inactive) | GI50 [28]: > 100 µM (inactive) | GI50 [29]: > 100 µM (inactive) | GI50 [30]: > 100 µM (inactive) | GI50 [31]: > 100 µM (inactive) | GI50 [32]: > 100 µM (inactive) | GI50 [58]: > 100 µM (inactive) | GI50 [33]: > 100 µM (inactive) | GI50 [35]: > 100 µM (inactive) | GI50 [36]: > 100 µM (inactive) | GI50 [37]: > 100 µM (inactive) | GI50 [38]: > 100 µM (inactive) | GI50 [39]: > 100 µM (inactive) | GI50 [40]: > 100 µM (inactive) | GI50 [59]: > 100 µM (inactive) | GI50 [41]: > 100 µM (inactive) | GI50 [42]: > 100 µM (inactive) | GI50 [43]: > 100 µM (inactive) | GI50 [44]: > 100 µM (inactive) | GI50 [46]: > 100 µM (inactive) | GI50 [47]: > 100 µM (inactive) | GI50 [48]: > 100 µM (inactive) | GI50 [49]: > 100 µM (inactive) | GI50 [50]: > 100 µM (inactive) | GI50 [51]: > 100 µM (inactive) | GI50 [52]: > 100 µM (inactive) | GI50 [53]: > 100 µM (inactive) | GI50 [54]: > 100 µM (inactive) | GI50 [55]: > 100 µM (inactive) | GI50 [56]: > 100 µM (inactive)
